What was measured:
OE33 spheres = experiment: Tumor sphere formation assay in OE33; type: cell-based, human
Protocol: In order to assess the effect of hit to lead compounds on the proliferation of stem cell like population of Notch/NACK dependent cells, the primary tumor spheres were treated with NACK inhibitor and allow the cells to be propagated as secondary cultures. To obtain tumor spheres, cells were cultured in DMEM/F12 with 2% B-27 serum-free supplement (17604-044; Invitrogen), 20 ng/mL epidermal growth factor (EGF; PHG0311L; Invitrogen), and 20 ng/mL basic fibroblastic growth factor (bFGF; PHG0266; Invitrogen) for 14 days. Resulting tumor spheres were examined and counted under the microscope. Furthermore, the tumor spheres were collected for further RT-qPCR analysis to test the effect of hit to lead compounds on the stem like target genes.

NACK = target: T1, NACK (Mus musculus, UniProt Q571I4); experiment: Surface plasmon resonance (SPR) binding to GST tagged NACK; conditions: equilibrium approach, 1:1 binding model; 25° C.; FIG. 10A; read-out: KD
T1 sequence (Q571I4 1-1373): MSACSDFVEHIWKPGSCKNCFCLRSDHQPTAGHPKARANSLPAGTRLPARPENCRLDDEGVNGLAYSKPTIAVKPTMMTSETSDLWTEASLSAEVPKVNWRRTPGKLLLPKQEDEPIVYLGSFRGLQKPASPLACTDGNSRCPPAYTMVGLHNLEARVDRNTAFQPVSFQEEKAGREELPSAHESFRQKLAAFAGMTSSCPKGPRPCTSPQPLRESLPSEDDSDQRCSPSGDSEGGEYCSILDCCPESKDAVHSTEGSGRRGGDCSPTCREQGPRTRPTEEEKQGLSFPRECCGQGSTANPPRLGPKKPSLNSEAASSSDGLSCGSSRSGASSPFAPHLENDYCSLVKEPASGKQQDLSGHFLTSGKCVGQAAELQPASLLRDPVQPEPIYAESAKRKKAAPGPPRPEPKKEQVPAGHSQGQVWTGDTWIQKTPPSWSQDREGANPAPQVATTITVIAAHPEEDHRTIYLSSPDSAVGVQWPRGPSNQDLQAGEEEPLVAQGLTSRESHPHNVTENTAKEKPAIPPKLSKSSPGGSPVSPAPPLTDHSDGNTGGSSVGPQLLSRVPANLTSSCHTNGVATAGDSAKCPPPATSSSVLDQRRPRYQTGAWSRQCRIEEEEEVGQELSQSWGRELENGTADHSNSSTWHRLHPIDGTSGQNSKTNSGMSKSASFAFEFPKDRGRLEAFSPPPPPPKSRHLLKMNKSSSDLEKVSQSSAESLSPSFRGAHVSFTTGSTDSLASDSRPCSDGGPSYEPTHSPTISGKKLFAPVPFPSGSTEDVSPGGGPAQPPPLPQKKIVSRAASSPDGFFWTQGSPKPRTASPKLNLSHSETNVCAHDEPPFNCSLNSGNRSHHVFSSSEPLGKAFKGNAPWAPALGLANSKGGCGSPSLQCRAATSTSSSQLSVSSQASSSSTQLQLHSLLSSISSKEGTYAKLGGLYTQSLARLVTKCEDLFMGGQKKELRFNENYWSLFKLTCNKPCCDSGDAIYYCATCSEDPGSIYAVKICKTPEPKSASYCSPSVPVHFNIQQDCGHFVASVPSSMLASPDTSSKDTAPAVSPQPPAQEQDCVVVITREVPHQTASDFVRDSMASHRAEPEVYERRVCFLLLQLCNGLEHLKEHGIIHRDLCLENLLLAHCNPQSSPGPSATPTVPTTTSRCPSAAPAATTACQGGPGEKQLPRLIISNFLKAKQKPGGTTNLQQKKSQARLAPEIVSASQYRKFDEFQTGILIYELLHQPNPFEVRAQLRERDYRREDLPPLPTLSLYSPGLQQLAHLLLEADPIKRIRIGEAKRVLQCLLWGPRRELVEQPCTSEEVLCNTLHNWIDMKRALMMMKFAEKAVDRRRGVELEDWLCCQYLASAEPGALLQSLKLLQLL
Protocol: The interaction between inhibitor Z271-0326 and target NACK was characterized using surface plasmon resonance (SPR). For this purpose, GST tagged NACK was captured by a GST antibody that was previously immobilized onto the surface of the chip through standard amide coupling. The dissociation constants associated with binding of the compounds to NACK was determined using the equilibrium approach, which consists of plotting the equilibrium response (Req) as a function of concentration of the compound and fitting the data to a 1:1 binding model.
A GST capture kit (GE Healthcare) were utilized to covalently immobilize an anti-GST antibody, provided in the kit, to the sensor chip surface (CM5 chip, GE Healthcare) by following the manufacturer's instructions. Capture were performed by injecting GST-NACK (1 μg/μL) over the immobilized anti-GST antibody in Hepes buffer (10 mM Hepes, pH 7.5, 150 mM NaCl, 3 mM EDTA, 0.0005% NP-40) for 7 min at 10 μL/min. A reference flow cell was prepared by capturing GST following the procedure described above. […] Experiments were performed on a Biacore T200 instrument (GE Healthcare) at 25° C. Small molecule inhibitors binding to NACK were performed in 50 mM Tris buffer, pH 7.5, containing 150 mM NaCl, 10 mM MgCl2 and 5% DMSO (running buffer). The SPR signal arising from the sample was corrected for its respective control containing DMSO. Data visualization and analysis was performed using Biacore T200 software (GE Healthcare) and Origin 8.0 (OriginLab).

SMILES: CCN(CC)C(=O)c1cnn2ccc(C3CCN(S(=O)(=O)c4ccc(NC(C)=O)cc4)CC3)cc12 [Compound Z271-0326, 5-(1-((4-acetamidophenyl)sulfonyl)piperidin-4-yl)-N,N-diethylpyrazolo[1,5-a]pyridine-3-carboxamide]
- secondary sphere formation (OE33 spheres; OE33, FIG. 7A): decrease in the ability of cell spheres to form secondary spheres
- Notch target genes transcription in spheres (OE33 spheres; OE33 spheres, FIG. 7B): affected Notch target genes HES1, MYC, CCND1 and NACK transcription
- Kd (NACK): 0.89 ± 0.07 µM

Reference: patent US12077508B2, “Inhibitors of the Notch transcriptional activation complex kinase (“NACK”) and methods for use of the same” (UNIVERSITY OF MIAMI, priority 2018, dated 2024)
